Measurements taken from article PMC7087588 (Monatshefte Fur Chemie, 2019).
Entries after “also recorded” stand apart in the source; their conditions may differ.

These compounds were tested on Punta Toro virus, yellow fever virus or Sindbis virus.
Type: cell-based
In the case of `O=C(NN1C(=O)CSC12CCCCC2)c1[nH]c2ccc(Cl)cc2c1-c1ccccc1` [Compound 4b, 5-Chloro-N-(3-oxo-1-thia-4-azaspiro[4.5]decan-4-yl)-3-phenyl-1H-indole-2-carboxamide], the “antiviral activity (in words)” value was “moderately active; also recorded: inhibitory effect”. For `CC1CCCC2(C1)SCC(=O)N2NC(=O)c1[nH]c2ccc(Cl)cc2c1-c1ccccc1` (stereo not drawn) [Compound 4c, 5-Chloro-N-(7-methyl-3-oxo-1-thia-4-azaspiro[4.5]decan-4-yl)-3-phenyl-1H-indole-2-carboxamide], the “antiviral activity (in words)” value was “moderately active; also recorded: inhibitory effect”. In the case of `CC1SC2(CCCCC2)N(NC(=O)c2[nH]c3ccc(Cl)cc3c2-c2ccccc2)C1=O` (stereo not drawn) [Compound 5b, 5-Chloro-N-(2-methyl-3-oxo-1-thia-4-azaspiro[4.5]decan-4-yl)-3-phenyl-1H-indole-2-carboxamide], the “antiviral activity (in words)” value was “moderately active; also recorded: inhibitory effect”. In the case of `CC1CCC2(CC1)SC(C)C(=O)N2NC(=O)c1[nH]c2ccc(Cl)cc2c1-c1ccccc1` (stereo not drawn) [Compound 5d, 5-Chloro-N-(2,8-dimethyl-3-oxo-1-thia-4-azaspiro[4.5]decan-4-yl)-3-phenyl-1H-indole-2-carboxamide], the “antiviral activity (in words)” value was “moderately active; also recorded: inhibitory effect”.

These compounds were tested on variety of DNA and RNA viruses.
Type: cell-based
With `O=C(NN1C(=O)CSC12CCCC2)c1[nH]c2ccc(Cl)cc2c1-c1ccccc1` [Compound 4a, 5-Chloro-N-(3-oxo-1-thia-4-azaspiro[4.4]nonan-4-yl)-3-phenyl-1H-indole-2-carboxamide] the “antiviral activity (in words)” value was “no antiviral activity”. With `CC1SC2(CCCC2)N(NC(=O)c2[nH]c3ccc(Cl)cc3c2-c2ccccc2)C1=O` (stereo not drawn) [Compound 5a, 5-Chloro-N-(2-methyl-3-oxo-1-thia-4-azaspiro[4.4]nonan-4-yl)-3-phenyl-1H-indole-2-carboxamide] the “antiviral activity (in words)” value was “no antiviral activity”.
